Experimental data as given in patent publication US6462021B1, “Use of low molecular weight thrombin inhibitor” (AstraZeneca AB, priority 2000, dated 2002).

Experiments:
patients with NVAF [1] = assay: Ongoing open label follow-up trials, 1 year on; assay type: in vivo
Excerpt: The duration of treatment was 12 weeks.

patients with NVAF [2] = assay: Clinical dose-guiding study: safety and tolerability (discontinuations, bleeding, adverse events)
Protocol: (§1) The tolerability of three different doses of X (20, 40, 60 mg p.o. b.i.d.) was compared with warfarin (aiming for an international normalisation ratio (INR) of 2 to 3) over 3 months' treatment in NVAF patients with moderately to high increased risk for stroke or systemic embolic events.
(§2) This was a multicentre, multinational, randomized, parallel group, dose-guiding study to compare the safety and tolerabilty of X with warfarin in stroke prophylaxis in patients with NVAF.
(§3) Patients were split into four groups: one group receiving 20 mg of X b.i.d, one given 40 (2×20) mg of X b.i.d, and one 60 (3×20) mg of X b.i.d. The fourth group received warfarin (open label, INR aiming for 2.0 to 3.0). All X medication was given double blind (i.e. neither doctor nor patient knew what tablet strength of X was given).
(§4) The duration of treatment was 12 weeks. […] The 40 mg b.i.d. dose was later reduced to 36 mg b.i.d. of X.

patients with NVAF [3] = assay: Clinical dose-guiding study: stroke/TIA events; assay type: in vivo, human
Protocol: as §1, §2, §3, §4

patients with NVAF [4] = assay: Clinical dose-guiding study: warfarin management (INR by visit); assay type: in vivo, human
[5] = NVAF patients, 20, 40, 60 mg p.o. b.i.d.
Protocol: as §1, §3

[6] = warfarin group, 40 treatment years
[7] = X 36 mg b.i.d., 120 treatment years
[8] = X Dose 140 mg (so in the source) b.i.d., 12 weeks
[9] = X group, at 60 mg b.i.d., 12 weeks

## CC(=O)CC(c1ccccc1)c1c(O)c2ccccc2oc1=O (centres unmarked) [Warfarin, warfarin]
Patients with NVAF [1]; [6]
  TIAs: 2
  fatal strokes: 2
  major life-threatening bleeds: 3
Patients with NVAF [2]; warfarin group, 12 weeks
  Bleeding Events, category Major: 1
  Bleeding Events, category Minor: 2
  Bleeding Events, category Multiple Minor: 1
  Bleeding Events, category None (patients): 60
  Bleeding Events, category Unspecified: 3
  Number of Patients discontinued, reason Adverse Event: 4
  Number of Patients discontinued, reason Calc. CrCl < 40 mL/min: 5
  Number of Patients discontinued, reason Other: 3
  Number of Patients discontinued, reason Withdrawn Consent: 1
  Number of Patients, Total Discontinued: 13
Patients with NVAF [2]; warfarin group, 12 weeks, listed as warfarin
  Bleeding Events, category Major: only major bleed (genital tract) and one
Patients with NVAF [2]; warfarin, INR aim 2.0-3.0, 12 weeks
  Prematurely discont. (percent of patients): (19%)
Patients with NVAF [2]; warfarin, INR aim 2.0-3.0, 12 weeks, 67 randomised
  Prematurely discont. (number of patients): 13
Patients with NVAF [3]; warfarin group, 12 weeks
  TIAs reported: two
Patients with NVAF [3]; warfarin group, 12 weeks, one line per patient (Pat. 120, 153)
  Stroke/TIA event of individual patient: TIA
Patients with NVAF [4]; Visit 1, Week 0, N 62
  Patients in INR Range 1.0-1.9 (number): 34
  Patients in INR Range 1.0-1.9 (percent): 55%
  Patients in INR Range 2.0-3.0 (number): 21
  Patients in INR Range 2.0-3.0 (percent): 34%
  Patients in INR Range >3.0 (number): 7
  Patients in INR Range >3.0 (percent): 11%
Patients with NVAF [4]; Visit 3, Week 1, N 59
  Patients in INR Range 1.0-1.9 (number): 22
  Patients in INR Range 1.0-1.9 (percent): 37%
  Patients in INR Range 2.0-3.0 (number): 25
  Patients in INR Range 2.0-3.0 (percent): 42%
  Patients in INR Range >3.0 (number): 12
  Patients in INR Range >3.0 (percent): 20%
Patients with NVAF [4]; Visit 4, Week 2, N 54
  Patients in INR Range 1.0-1.9 (number): 15
  Patients in INR Range 1.0-1.9 (percent): 28%
  Patients in INR Range 2.0-3.0 (number): 26
  Patients in INR Range 2.0-3.0 (percent): 48%
  Patients in INR Range >3.0 (number): 13
  Patients in INR Range >3.0 (percent): 24%
Patients with NVAF [4]; Visit 5, Week 4, N 51
  Patients in INR Range 1.0-1.9 (number): 17
  Patients in INR Range 1.0-1.9 (percent): 33%
  Patients in INR Range 2.0-3.0 (number): 22
  Patients in INR Range 2.0-3.0 (percent): 43%
  Patients in INR Range >3.0 (number): 12
  Patients in INR Range >3.0 (percent): 24%
Patients with NVAF [4]; Visit 6, Week 8, N 49
  Patients in INR Range 1.0-1.9 (number): 15
  Patients in INR Range 1.0-1.9 (percent): 31%
  Patients in INR Range 2.0-3.0 (number): 25
  Patients in INR Range 2.0-3.0 (percent): 51%
  Patients in INR Range >3.0 (number): 9
  Patients in INR Range >3.0 (percent): 18%
Patients with NVAF [4]; Visit 7, Week 12, N 58
  Patients in INR Range 1.0-1.9 (number): 18
  Patients in INR Range 1.0-1.9 (percent): 31%
  Patients in INR Range 2.0-3.0 (number): 33
  Patients in INR Range 2.0-3.0 (percent): 57%
  Patients in INR Range >3.0 (number): 7
  Patients in INR Range >3.0 (percent): 12%

## CCOC(=O)CN[C@@H](C(=O)N1CC[C@H]1C(=O)NCc1ccc(/C(N)=N\O)cc1)C1CCCCC1 [X, EtO2C—CH2-(R)Cgl-Aze-Pab-OH]
Patients with NVAF [1]; [7]
  TIAs: 2
  major bleeds: no major bleeds
  non-fatal strokes: 2
Patients with NVAF [2]; X 20 mg p.o. b.i.d., 12 weeks
  Prematurely discont. (percent of patients): (15%)
Patients with NVAF [2]; X 20 mg p.o. b.i.d., 12 weeks, 66 randomised
  Prematurely discont. (number of patients): 10
Patients with NVAF [2]; X 40 mg p.o. b.i.d., 12 weeks
  Prematurely discont. (percent of patients): (19%)
Patients with NVAF [2]; X 40 mg p.o. b.i.d., 12 weeks, 64 randomised
  Prematurely discont. (number of patients): 12
Patients with NVAF [2]; X 60 mg b.i.d., similar pattern to warfarin
  onset pattern of bleeding: occurs early in the treatment period
Patients with NVAF [2]; X 60 mg p.o. b.i.d., 12 weeks
  Prematurely discont. (percent of patients): (20%)
Patients with NVAF [2]; X 60 mg p.o. b.i.d., 12 weeks, 60 randomised
  Prematurely discont. (number of patients): 12
Patients with NVAF [2]; X Dose 20 mg b.i.d., 12 weeks
  Bleeding Events, category Major: 0
  Bleeding Events, category Minor: 1
  Bleeding Events, category Multiple Minor: 2
  Bleeding Events, category None (patients): 61
  Bleeding Events, category Unspecified: 2
  Number of Patients discontinued, reason Adverse Event: 6
  Number of Patients discontinued, reason Calc. CrCl < 40 mL/min: 4
  Number of Patients discontinued, reason Other: 0
  Number of Patients, Total Discontinued: 10
Patients with NVAF [2]; X Dose 40 mg b.i.d., 12 weeks
  Bleeding Events, category Major: 0
  Bleeding Events, category Minor: 0
  Bleeding Events, category Multiple Minor: 3
  Bleeding Events, category None (patients): 57
  Bleeding Events, category Unspecified: 2
Patients with NVAF [2]; X Dose 60 mg b.i.d., 12 weeks
  Bleeding Events, category Major: 0
  Bleeding Events, category Minor: 3
  Bleeding Events, category Multiple Minor: 0
  Bleeding Events, category None (patients): 52
  Bleeding Events, category Unspecified: 4
  Number of Patients discontinued, reason Adverse Event: 5
  Number of Patients discontinued, reason Calc. CrCl < 40 mL/min: 4
  Number of Patients discontinued, reason Other: 1
  Number of Patients, Total Discontinued: 12
Patients with NVAF [2]; [8]
  Number of Patients discontinued, reason Adverse Event: 3
  Number of Patients discontinued, reason Calc. CrCl < 40 mL/min: 5
  Number of Patients discontinued, reason Other: 1
  Number of Patients, Total Discontinued: 12
Patients with NVAF [2]; a few patients treated with X
  liver enzyme levels: asymptomatic increases
Patients with NVAF [2]; doses of up to 60 mg b.i.d. over 3 months
  tolerability: well tolerated
Patients with NVAF [3]; X 60 mg b.i.d. group, 12 weeks, one line per patient (Pat. 121, 309)
  Stroke/TIA event of individual patient: Ischemic stroke and TIA
Patients with NVAF [3]; X group, all doses combined, estimated 40 patient years of observation
  stroke rate: 2.5%
Patients with NVAF [3]; [9]
  TIA reported: one
  ischemic stroke reported: one
[5]
  pharmacokinetics, dose dependence: dose proportional
